The text below walks through data of ChEMBL document CHEMBL1156409, “Durhamycin A, a potent inhibitor of HIV Tat transactivation” (J Nat Prod, 2002).

A short description of data set [1]: Inhibition of HIV Tat transactivation in human 63A9 cells by luciferase based reporter gene assay. It is filed as cell-based, Human immunodeficiency virus.
Data set [2] concerns Human immunodeficiency virus. As to the kind of experiment: Antiviral activity against HIV H9/3B in HeLa P4/P5 cells after 48 hrs by vertical assay. It is filed as functional, organism-based. The conditions noted are these: Human immunodeficiency virus 1, H9/3B.
The nature of data set [3]: Cytotoxicity against human 63A9 cells at 25 uM by MTS assay. It is filed as cell-based. The conditions noted are these: 63a9, 25 µM.
A short description of data set [4]: Cytotoxicity against human HeLa P4/P5 cells up to 5 uM. It is filed as cell-based.
[5] abbreviates: Human immunodeficiency virus 1, 63A9, read-out: IC50.

`CCC(C)c1c(O)cc2cc3c(c(O)c2c1O)C(=O)C(O)C(C(OC)C(=O)C(O)C(C)O)C3` (stereo unspecified): the concentration for half-maximal inhibition (IC50) entry in data set [1] (63a9) is “Not Active”.

`CCC(C)c1c(O[C@H]2C[C@@H](O[C@H]3C[C@@H](O)[C@H](O)[C@@H](C)O3)[C@H](O)[C@@H](C)O2)cc2cc3c(c(O)c2c1O)C(=O)C(O[C@H]1C[C@@H](O[C@H]2C[C@@H](O[C@H]4C[C@@H](O[C@H]5C[C@@H](O)[C@H](O)[C@@H](C)O5)[C@H](O)[C@@H](C)O4)[C@@H](OC(C)=O)[C@@H](C)O2)[C@H](O)[C@@H](C)O1)C(C(OC)C(=O)C(O)C(C)O)C3` (stereo partly specified) [DURHAMYCIN A]: the IC50 in data set [1] (setting [5]) was determined as 4.8 nM; in data set [2], 11.6 nM. Also, the Activity result in data set [3] and in data set [4] was “Non-toxic” throughout.

`CCC(C)c1c(O[C@H]2C[C@@H](O[C@H]3C[C@@H](O)[C@H](O)[C@@H](C)O3)[C@H](O)[C@@H](C)O2)cc2cc3c(c(O)c2c1O)C(=O)C(O[C@H]1C[C@@H](O[C@H]2C[C@@H](O[C@H]4C[C@@H](O)[C@H](O)[C@@H](C)O4)[C@@H](OC(C)=O)[C@@H](C)O2)[C@H](O)[C@@H](C)O1)C(C(OC)C(=O)C(O)C(C)O)C3` (stereo partly specified) [DURHAMYCIN B]: the IC50 in data set [1] (setting [5]) was determined as 48 nM.
